Measurements as given in publication PMC2861555 (International journal of radiation biology, 2009).
Like-named read-outs stand apart in the source and are kept apart here. Marks after values point to notes of the source that are not given here.

Format: in vivo, rat
Settings: for Bile/Urine (%): bile share of U excretion / Bile/Urine (%): urine share of U excretion / % Administered Dose Excreted: 24 h; for Reduction (%) of renal uranium vs control / reduction of bone actinide content vs control: 24 h post-metal; for % Administered Dose Excreted: bile + urine; for Renal Conc.: kidneys removed 24 h post-metal; for Kidney U Conc. / Liver U Conc. / Lung U Conc. / Spleen U Conc. / Bone (femur) U Conc.: tissue 24 h post-metal; for Bone (femur) U Conc.: bone + bone marrow; for reduction of bone actinide content vs control: femur

For `COc1ccc(C2=N[C@@H](C(=O)O)CS2)c(O)c1` [compound 3, (S)-2-(2-hydroxy-4-methoxyphenyl)-4,5-dihydro-4-thiazolecarboxylic acid], the “Bile/Urine (%): bile share of U excretion” value (from here on “Bile/Urine (%): bile share”) (single dose 150 µmol kg^−1 SC) was 37%, the “Bile/Urine (%): urine share of U excretion” value (“Bile/Urine (%): urine share” for short) (single dose 150 µmol kg^−1 SC) was 63% and the “Reduction (%) of renal uranium vs control” value (from here on “Reduction (%)”) (single dose 150 µmol kg^−1 SC) was 40%. For the same compound, the “% Administered Dose Excreted” value (single dose 150 µmol kg^−1 SC) was 23.8%, the “Renal Conc.” value (single dose 150 µmol kg^−1 SC) was 51 ± 22 ^b µg g^−1 and the “Kidney U Conc.” value (single dose 150 µmol kg^−1 SC) was 51 ± 22 ^b µg g^−1. The “Liver U Conc.” value (single dose 150 µmol kg^−1 SC) was 9.0 ± 4.0 ^c µg g^−1, the “Lung U Conc.” value (single dose 150 µmol kg^−1 SC) was 0.32 ± 0.09 ^c µg g^−1 and the “Spleen U Conc.” value (single dose 150 µmol kg^−1 SC) was 0.48 ± 0.09 ^c µg g^−1. For the same compound, the “Bone (femur) U Conc.” value (single dose 150 µmol kg^−1 SC) was 4.1 ± 1.6 µg/g, the “Bile/Urine (%): bile share” value (single dose 300 µmol kg^−1 PO) was 85% and the “Bile/Urine (%): urine share” value (single dose 300 µmol kg^−1 PO) was 15%. For the same compound, the “Reduction (%)” value (single dose 300 µmol kg^−1 PO) was 73%, the “% Administered Dose Excreted” value (single dose 300 µmol kg^−1 PO) was 26.0% and the “Renal Conc.” value (single dose 300 µmol kg^−1 PO) was 23 ± 11 ^b µg g^−1. For the same compound, the “Kidney U Conc.” value (single dose 300 µmol kg^−1 PO) was 23 ± 11 ^b µg g^−1, the “Liver U Conc.” value (single dose 300 µmol kg^−1 PO) was 2.5 ± 0.8 ^c µg g^−1 and the “Lung U Conc.” value (single dose 300 µmol kg^−1 PO) was 0.28 ± 0.10 ^c µg g^−1. The “Spleen U Conc.” value (single dose 300 µmol kg^−1 PO) was 0.29 ± 0.07 ^c µg g^−1, the “Bone (femur) U Conc.” value (single dose 300 µmol kg^−1 PO) was 3.1 ± 1.3 µg/g and the “Bile/Urine (%): bile share” value (single dose 300 µmol kg^−1 SC) was 77%. The “Bile/Urine (%): urine share” value (single dose 300 µmol kg^−1 SC) was 23%, the “Reduction (%)” value (single dose 300 µmol kg^−1 SC) was 60% and the “% Administered Dose Excreted” value (single dose 300 µmol kg^−1 SC) was 32.7%. For the same compound, the “Renal Conc.” value (single dose 300 µmol kg^−1 SC) was 34 ± 5 ^b µg g^−1, the “Kidney U Conc.” value (single dose 300 µmol kg^−1 SC) was 34 ± 5 ^b µg g^−1 and the “Liver U Conc.” value (single dose 300 µmol kg^−1 SC) was 6.6 ± 1.2 ^c µg g^−1. The “Lung U Conc.” value (single dose 300 µmol kg^−1 SC) was 0.32 ± 0.02 ^c µg g^−1, the “Spleen U Conc.” value (single dose 300 µmol kg^−1 SC) was 0.39 ± 0.07 ^c µg g^−1 and the “Bone (femur) U Conc.” value (single dose 300 µmol kg^−1 SC) was 3.0 ± 1.5 µg/g.

For `COc1ccc(C2=N[C@@](C)(C(=O)O)CS2)c(O)c1` [compound 7, (S)-4'-(CH3O)-DADFT], the “Bile/Urine (%): bile share” value (single dose 150 µmol kg^−1 SC) was 62%, the “Bile/Urine (%): urine share” value (single dose 150 µmol kg^−1 SC) was 38% and the “Reduction (%)” value (single dose 150 µmol kg^−1 SC) was 77%. For the same compound, the “% Administered Dose Excreted” value (single dose 150 µmol kg^−1 SC) was 24.8%, the “Renal Conc.” value (single dose 150 µmol kg^−1 SC) was 19 ± 4 ^b µg g^−1 and the “Kidney U Conc.” value (single dose 150 µmol kg^−1 SC) was 19 ± 4 ^b µg g^−1. The “Liver U Conc.” value (single dose 150 µmol kg^−1 SC) was 11.3 ± 3.2 µg/g, the “Lung U Conc.” value (single dose 150 µmol kg^−1 SC) was 0.28 ± 0.04 ^c µg g^−1 and the “Spleen U Conc.” value (single dose 150 µmol kg^−1 SC) was 0.39 ± 0.08 ^c µg g^−1. For the same compound, the “Bone (femur) U Conc.” value (single dose 150 µmol kg^−1 SC) was 2.9 ± 0.9 µg/g, the “Liver U Conc.” value (single dose 150 µmol kg^−1 SC, listed as C00017) was 11.3 ± 3.2 ^c µg g^−1 and the “Bile/Urine (%): bile share” value (single dose 300 µmol kg^−1 PO) was 89%. The “Bile/Urine (%): urine share” value (single dose 300 µmol kg^−1 PO) was 11%, the “Reduction (%)” value (single dose 300 µmol kg^−1 PO) was 94% and the “% Administered Dose Excreted” value (single dose 300 µmol kg^−1 PO) was 26.5%. The “Renal Conc.” value (single dose 300 µmol kg^−1 PO) was 5 ± 3 ^b µg g^−1, the “Kidney U Conc.” value (single dose 300 µmol kg^−1 PO) was 5 ± 3 ^b µg g^−1 and the “Liver U Conc.” value (single dose 300 µmol kg^−1 PO) was 5.1 ± 1.7 ^c µg g^−1. The “Lung U Conc.” value (single dose 300 µmol kg^−1 PO) was 0.30 ± 0.10 ^c µg g^−1, the “Spleen U Conc.” value (single dose 300 µmol kg^−1 PO) was 0.49 ± 0.44 µg/g and the “Bone (femur) U Conc.” value (single dose 300 µmol kg^−1 PO) was 1.7 ± 0.9 ^b µg g^−1. The “Bile/Urine (%): bile share” value (single dose 300 µmol kg^−1 SC) was 92%, the “Bile/Urine (%): urine share” value (single dose 300 µmol kg^−1 SC) was 8% and the “Reduction (%)” value (single dose 300 µmol kg^−1 SC) was 90%. The “% Administered Dose Excreted” value (single dose 300 µmol kg^−1 SC) was 33.9%, the “Renal Conc.” value (single dose 300 µmol kg^−1 SC) was 8 ± 2 ^b µg g^−1 and the “Kidney U Conc.” value (single dose 300 µmol kg^−1 SC) was 8 ± 2 ^b µg g^−1. For the same compound, the “Liver U Conc.” value (single dose 300 µmol kg^−1 SC) was 8.1 ± 2.4 ^c µg g^−1, the “Lung U Conc.” value (single dose 300 µmol kg^−1 SC) was 0.61 ± 0.13 ^c µg g^−1 and the “Spleen U Conc.” value (single dose 300 µmol kg^−1 SC) was 0.67 ± 0.18 ^c µg g^−1. The “Bone (femur) U Conc.” value (single dose 300 µmol kg^−1 SC) was 1.8 ± 0.6 ^b µg g^−1, the “reduction of bone actinide content vs control” value (single dose 300 µmol kg^−1 p.o.) was at least 50% and the “reduction of bone actinide content vs control” value (single dose 300 µmol kg^−1 s.c.) was at least 50%.
